Format in all cases: cell-based
The subject of data set [1] is murine melanoma cells B16-F1. Nature of the data set: Melanin production by murine melanoma cells B16-F1. The conditions noted are these: Mus musculus, B16-F1, 1 nM α-MSH, 48 hours. On the procedure:
Selected compounds were then tested for the ability to suppress melanin production by the murine melanoma cells B16-F1 as detailed below.
Murine melanoma cells B16-F1 were purchased from the ATCC (Cat #CRL-6323). Cell Titer96 AqueousOne Solution was purchased from Promega (Cat #G3582). 0.2 μm pore size, low protein binding filters were purchased from PALL Life Sciences. (Cat #PN4454).
Alpha-MSH was purchased from the Sigma Aldrich (Cat #M4135-1MG). All tissue culture reagents were purchased from VWR (phenol-red-free DMEM, cat #12001-630, L-glutamine, cat #12001-698) and Fisher Scientific (Trypsin-EDTA, cat #25-200-056).
The B16-F1 cells were maintained in cell growth media (DMEM/High Glucose supplemented with glutamine, 10% fetal bovine serum, 50 units/ml penicillin, and 50 units/mL of streptomycin) at 37° C. in a humidified atmosphere of 95% air and 5% CO2.
(§1) All test compounds were initially dissolved in 100% DMSO at a concentration of 400 mM. Then, 6 μL of 400 mM test compounds were added to 1.2 mL of the cell growth media giving a final concentration of 2 mM for the test compound and concentration of 0.5% for DMSO. The compounds were centrifuged for 1 h at 20,000×g. Supernatants (1 mL) were collected and filtered through sterile 0.2 μm filters. The compounds were serially diluted in two-fold increments in the sterile cell growth media supplemented with 0.5% DMSO, thus keeping the concentration of DMSO constant for all samples. These serially diluted compounds were subsequently used as two-fold concentrated stock solutions in the melanin production and cell viability assays. Equal volumes of 2× compounds were mixed with media containing 2 nM α-MSH to give a final concentration of 1 nM α-MSH, 0.5% DMSO, and 1× concentration of test compounds.
B16-F1 cells were seeded into the wells of clear-bottom 24-well plates at 50,000 cells per well, in 0.5 mL of cell growth media. On the following day, 0.5 mL of freshly prepared test compounds containing α-MSH were added to the wells. The cells were maintained at 37° C. in a humidified atmosphere of 95% air and 5% CO2 for 48 hours. At the end of the incubation period, melanin-containing conditioned media was removed from the cells and transferred to another plate. To measure melanin content the light absorbance of conditioned media was taken at 492 nm using a TECAN Genios plate reader.
(§2) More than 90% percent of the melanin produced by cultured melanoma cells is found in extra-cellular media. Therefore, at the end of the experiment melanin-containing media was collected and relative amounts of melanin were determined by absorption at 492 nm. Viability of cells was determined by a commonly used colorimetric procedure that is based on conversion of the tetrazolium compounds to colored formazan products (using Promega's CellTiter96 AqueousOne assay). Dehydrogenase enzymes in metabolically active cells accomplish this conversion, and the amount of formazan product is directly proportional to the number of living cells in culture. Mean (n=2) absorption of wells containing no cells was subtracted as blanks. The results were computed as percent of wells that contained the cells but no test compounds.

For data set [2], the system named is murine melanoma cells B16-F1. The data set can be described thus: Cell viability, tetrazolium reduction assay. As for the experimental part:
as §1
Viability of cells was measured using standard tetrazolium reduction assay based on redox potential of live cells. Cells were seeded in a clear-bottom 96-well plate in RPMI 1640 media with Glutamax (Fisher Scientific, cat #61870036) at a density of 5,000 cells/well. Cells were treated with test compounds dissolved in 100 μL RPMI 1640 media and incubated for 48 hours at 37° C. in a humidified atmosphere of 95% air and 5% CO2.
After incubation, 20 μL of Aqueous One Solution were added to each well and the plate was returned to the incubator for 30 minutes. Conversion of tetrazolium was monitored by measuring absorbance of cell wells at 492 nm using a TECAN Genios plate reader.
as §2

Data set [3] has as its system Propionibacterium acnes (ATCC11827). Nature of the data set: P-acne MIC/MBC test. The conditions noted are these: Cutibacterium acnes; for MIC: ATCC11827, 24 h, lowest level that inhibits growth, turbidity, 1 day, read-out: MIC; for MBC: ATCC11827, lowest concentration required to kill the bacterium, read-out: MBC. On the procedure: The anti-microbial activity of the tested compounds were evaluated using published methods (Modugno e. al. (1994) Antimicrobial agents and Chemotherapy 38: 2362-2368; […] et. al. (1973) Antimicrobial agents and Chemotherapy 3: 40-48. Propionibacterium acnes (ATCC11827) was cultured for 20 hours at 37° C. in Reinforced Clostridal medium. The test article and positive control were dissolved in 1% DMSO with an incubation volume of 1 mL. The time of assessment was 1 day. Measurement of turbidity was used as the method of quantification. The compounds were tested in duplicate at concentrations of 250 ug/mL, 125 ug/mL, 62 ug/mL, 31 ug/mL, 16 ug/mL, 8 ug/mL, 4 ug/mL, 2 ug/mL relative to positive control ampicillin at 0.1 ug/mL.

The subject of data set [4] is reconstructed skin (keratinocytes and melanocytes). Nature of the data set: Reconstructed human skin model (Melanoderm). The conditions noted are these: for toxicity on reconstructed skin: at 0.05%. On the procedure:
The skin whitening effects of test compounds were studied using a reconstructed skin model, Melanoderm™ provided by MatTek Corp. (Ashland, Mass.) according to the manufacturer's specifications. Briefly, normal human epidermal keratinocytes and normal human melanocytes derived from dark skin donors were co-cultured on a surface of collagen-coated membrane to form multi-layered, highly differentiated skin tissue (MEL-300-B). The tissues were maintained in the CO2, incubator at 37° C. The apical surfaces of the reconstructed skin (9 mm in diameter) were exposed to air whereas the bottom surfaces remained in contact with 5 mL of maintenance medium, containing skin differentiating factors (EPI-100-NNM-113). Test compounds were formulated in 80% propylene glycol as follows: 10 mg of each test compound was dissolved in DMSO and diluted with 80% propylene glycol (1,2-propanediol, Sigma-Aldrich) to stock concentrations. The compounds were then sterilized by passing through 0.2 um filter and diluted in sterile water/propylene glycol to final test concentrations in 0.5% DMSO, 80% propylene glycol. In addition, the following controls were used: 80% propylene glycol with 0.5% DMSO, and 1% kojic acid in 80% propylene glycol.
‘Test compounds were applied to the apical surface of the tissues as follows: 25 μl of each test compound, 25 μl of 80% propylene glycol (vehicle control), and 25 μl of 1% kojic acid (positive control). The samples were reapplied every other day for 14 days. All the samples were tested in duplicate. At the end of the experiment microscopic images were taken.
The potential skin-whitening properties of test compounds were explored in a reconstructed skin model. The model consists of normal, human-derived epidermal keratinocytes and melanocytes, which have been co-cultured to form a multilayered, highly differentiated human epidermis. In this study the melanocytes were obtained from a highly pigmented donor.
Different concentrations of test compounds, 80% propylene glycol (the vehicle control), or 1% kojic acid (positive control) were repeatedly applied topically on the surface of the reconstructed skin for 15 days. […] Photographs of skin specimen taken after 15 days of the experiment show significant dose-dependent whitening effects on melanocytes, which appear on photographs as dark dendritic cells.

Setting [5] is: Tables 1-3, read-out: MELANIN PRODUCTION
Setting [6] is: FIGS. 2-8, read-out: IC50, inhibition in the production of melanin.

For orientation: MIC means the lowest concentration found to suppress growth. One may read the MBC as the lowest tested concentration that kills the bacteria rather than only halting them.

Like-named read-outs stand apart in the source and are kept apart here.

With `CC(C)=CCCC(C)=Cc1cccc(O)c1` (mixture of isomers) [Compound 2, (E/Z)-3-(2,6-dimethylhepta-1,5-dienyl)phenol], the IC50 in data set [1] (setting [5]) worked out at 82 µM. Further, the “CELL VIABILITY” value in data set [2] (mouse, 48 h) turned out to be 66 µM.

`CC(C)=CCC/C(C)=C/c1ccc(O)cc1O` [Compound 3, (E/Z)-4-(2,6-dimethylhepta-1,5-dienyl)benzene-1,3-diol]: in data set [1] (setting [5]), the IC50 is 164 µM. Further, in data set [3], the MIC is below 3.9 µg/mL and the minimal bactericidal concentration (MBC) was below 3.9 µg/mL. Besides, the “CELL VIABILITY” value in data set [2] (mouse, 48 h) worked out at 172 µM.

Turning to `CC(C)=CCCC(C)/C=C/c1ccc2cc(O)ccc2c1` (stereo not drawn) [Compound 8, (E)-6-(3,7-Dimethylocta-1,6-dienyl) naphthalene-2-ol], the IC50 in data set [1] (setting [6]) came to 22 µM. Moreover, in data set [1] (setting [5]), the IC50 is 22 µM. Further, in data set [3], the minimal inhibitory concentration (MIC) was below 3.9 µg/mL and the MBC was below 3.9 µg/mL. Besides, the “toxicity on reconstructed skin” value in data set [4] is reported as “some toxicity”. In addition, in data set [2] (mouse, 48 h), the “CELL VIABILITY” value came to 68 µM and the “LD50, cell viability” value stood at 68 µM.

Regarding `CC(C)=CCCC(C)/C=C/c1cccnc1` (stereo not drawn) [Compound 12, (E)-3-(3,7-dimethylocta-1,6-dienyl) pyridine], the IC50 in data set [1] (setting [6]) amounted to 74 µM. Further, the IC50 in data set [1] (setting [5]) was found to be 74 µM. For the same compound, in data set [3], the minimum inhibitory concentration (MIC) is below 3.9 µg/mL and the MBC was below 3.9 µg/mL. The “toxicity on reconstructed skin” value in data set [4] is given as “some toxicity”. For the same compound, the “whitening effects on melanocytes” value in data set [4] (topical, photographs after 14 days) is on record as “significant whitening effects”. Further, the “CELL VIABILITY” value in data set [2] (48 hours, Tables 1-3) worked out at 385 µM. In addition, the “LD50, cell viability” value in data set [2] (mouse, 48 h) stood at 385 µM.

As to `CC(C)=CCCC(C)/C=C/c1ccccn1` (stereo not drawn) [Compound 13, (E)-2-(3,7-dimethylocta-1,6-dienyl) pyridine], the IC50 in data set [1] (setting [5]) came to 149 µM. Moreover, in data set [2] (mouse, 48 h), the “CELL VIABILITY” value stood at 650 µM.

Turning to `COc1ccc(/C=C/C(C)CCC=C(C)C)cn1` (stereo not drawn) [Compound 14, (E)-5-(3,7-dimethylocta-1,6-dienyl)-2-methoxypyridine], the IC50 in data set [1] (setting [5]) was found to be 147 µM. Moreover, the “CELL VIABILITY” value in data set [2] (mouse, 48 h) was 369 µM.

With `CC(C)=CCCC(C)C/C=C/c1cc(O)cc(O)c1` (stereo not drawn) [Compound 16, (E)-5-(4,8-dimethylnona-1,7-dienyl) benzene-1,3-diol], the IC50 in data set [1] (setting [5]) came to 164 µM. Moreover, in data set [3], the MIC is below 3.9 µg/mL and the MBC is below 3.9 µg/mL. Further, the “CELL VIABILITY” value in data set [2] (mouse, 48 h) was 172 µM.

With `CC(C)=CCCC(C)C/C=C/c1cc(OCC(=O)O)cc(OCC(=O)O)c1` (stereo not drawn) [Compound 17, (E)-2,2′-(5-(4,8-dimethylnona-1,7-dienyl)-1,3-phenylene)bis(oxy)diacetic acid], in data set [1] (setting [5]), the IC50 amounted to 72 µM. Besides, in data set [3], the minimum inhibitory concentration (MIC) was below 3.9 µg/mL and the MBC was below 3.9 µg/mL. Moreover, in data set [2] (mouse, 48 h), the “CELL VIABILITY” value turned out to be 127 µM.

(Values after patent US12358859B2, “Series of compounds for treatment of skin diseases and other conditions” (Unigen, Inc., priority 2018, dated 2025).)
